{
  "source": "patent US10292963B2",
  "about": "“Suppression and treatment of viruses” (priority 2013, dated 2019)",
  "assay": "Additional benefits observed in people taking betaine",
  "format": "in vivo, human",
  "description": "While the main benefit of a person or pet taking vitamin C and betaine in combination is the prevention/suppression of tumors, as mentioned before, additional benefits can be obtained depending upon the levels taken. Betaine is known to improve cardiovascular health, and can benefit people with fatty deposits in the liver. […] After only a few weeks of taking the betaine, cholesterol levels are reduced and the ability to lose weight is improved.",
  "key": {"[1]": {"conditions": "after only a few weeks of taking the betaine"}},
  "data": [
    {"molecule": "C[N+](C)(C)CC(=O)[O-]", "note": "[betaine, trimethylglycine]", "values": [
      {"measurement": "tendency to be light headed on getting up after prolonged squatting or kneeling", "setting": "after a few doses at about one and a half to about three grams per day, especially older people", "result": "considerably lessened"},
      {"measurement": "ability to lose weight", "setting": "[1]", "result": "improved"},
      {"measurement": "cholesterol levels", "setting": "[1]", "result": "reduced"}
    ]}
  ]
}
